From patent US7566737B2 (Genfit, priority 2002, dated 2009) come the findings set out here.

SMILES strings stand for the structures.

Assay [1] relates to C57BLKS-m Lepr^db transgenic mice. The assay can be described thus: Antidiabetic effect on insulin and glucose. Type of assay: in vivo, mouse. The conditions noted are these: 0.1 to 30 mg/Kg/day for 21 days. The procedure:
Genetically modified C57BLKS-m Lepr^db mice were used to asses antidiabetic effect of the inventive compounds. Mice were randomized according to their plasma lipid, glucose and insulin contents. Treatments were administered once daily by gavage (10 ml/kg) for the duration of the treatment. For oral administrations, the drugs were suspended in CMC 1% or CMC 1%+Tween 80 0.1%. The plasma glucose was measured using a kit reagent from Biomerieux (France). The plasma insulin was measured using a solid phase two-site enzyme immunoassay from Crystal Chem Inc. (USA). The results are exemplified in FIGS. 5-1 to 5-4 which illustrate the activity of inventive compounds 29 and 62 on glucose and insulin.

The target in the next assay is T1, human PPARα (Homo sapiens, UniProt Q07869).
T1 construct: expressed in transfected cells; host or cells: RK13 or COS-7
T1 sequence (Q07869 239-466 limits assumed): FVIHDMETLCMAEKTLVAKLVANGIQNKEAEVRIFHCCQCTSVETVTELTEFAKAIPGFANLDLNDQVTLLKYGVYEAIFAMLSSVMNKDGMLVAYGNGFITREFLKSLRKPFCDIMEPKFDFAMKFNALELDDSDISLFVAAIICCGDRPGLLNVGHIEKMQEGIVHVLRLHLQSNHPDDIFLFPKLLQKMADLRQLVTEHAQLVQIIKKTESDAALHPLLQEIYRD
The assay can be described thus: PPARα/Gal4 transactivation system. The conditions noted are these: PPAR/Gal4 transactivation system. Type of assay: cell-based. The procedure:
(§1) PPAR activation was tested in vitro in RK13 or COS-7 fibroblast cell lines by measuring the transcriptional activity of chimeras composed of the DNA binding domain of the yeast Gal4 transcription factor and the ligand binding domain of the different PPARs. These latter results were then confirmed in cell lines according to the following protocols.
(§2) Culture protocols: RK13 were from ECACC (Porton Down, UK) and were grown in DMEM medium supplemented with 10% (V/V) fetal calf serum, 100 U/ml penicillin (Gibco, Paisley, UK) and 2 mM L-glutamine (Gibco, Paisley, UK). COS-7 cells were from ATCC and were grown in DMEM medium supplemented with 10% (V/V) fetal calf serum, 1% penicillin/streptomycine (Biochrom, AG), 1% of amino acids (Gibco) and 1% sodium pyruvate (Gibco).
(§3) The culture medium was changed every two days. Cells were kept at 37° C. in a humidified 95% air/5% CO2 atmosphere.
(§4) Description of plasmids used for transfection: The plasmids Gal4(RE)_TkpGL3, pGal4-hPPARα, pGal4-hPPARγ, pGal4-hPPARδ and pGal4-φ have been described in the literature (Raspe E et al., 1999). The pGal4-hPPARα, pGal4-hPPARγ and pGal4-hPPARδ constructs were obtained by cloning into the pGal4-φ vector PCR-amplified DNA fragments corresponding to the DEF domains of the human PPARs nuclear receptors.
(§5) Transfection of RK13: RK13 cells were seeded in 24-well culture dishes at 5×10^4 cells/well and transfected for 2 hours with the reporter plasmid Gal4(RE)_TkpGL3 (50 ng/well), the expression vectors pGal4-φ, pGal4-hPPARα, pGal4-hPPARγ and pGal-hPPARδ (100 ng/well) and the transfection efficiency control vector pRL-CMV (1 ng/well) according to the previously described protocol (Raspe E, Madsen L, Lefebvre A M, Leitersdorf I, Gelman L, Peinado-Onsurbe J, Dallongeville J, Fruchart J C, Berge R and Staels B, 1999), then incubated for 36 hours with the test compounds. RK13 cells were incubated with the different compounds at concentrations of 10, 30 and 100 μM or 1, 10 and 100 μM for 24 hours. At the end of the experiment, the cells were lysed (Gibco, Paisley, UK) and luciferase activity was determined with a Dual-Luciferase™ Reporter Assay System kit (Promega, Madison, Wis., USA) according to the supplier's instructions. The protein content of the cell extracts was then measured with the Bio-Rad Protein Assay (Bio-Rad, Munich, Germany) as directed by the supplier.
(§6) Transfection of COS7: Cells in suspension are transfected, in the presence of 10% (V/V) fetal calf serum, with 150 ng of DNA per well with a pGal4-PPAR/Gal4(RE)_TkpGL3 ratio of 1/10. Cells are then seeded in 96 well plates (4×10^4 cells/well) and incubated for 24 hours at 37° C. Activation with compounds is performed on 24 hours at 37° C. in culture medium without serum. At the end of the activation period, cells are lysed and luciferase activity is determined, using the Steady Glow Luciferase Kit (Promega), according to the supplier's instructions.

A further assay has as its target T2, human PPARγ (Homo sapiens, UniProt P37231).
T2 construct: expressed in transfected cells; host or cells: RK13 or COS-7
T2 sequence (P37231 238-503 limits assumed): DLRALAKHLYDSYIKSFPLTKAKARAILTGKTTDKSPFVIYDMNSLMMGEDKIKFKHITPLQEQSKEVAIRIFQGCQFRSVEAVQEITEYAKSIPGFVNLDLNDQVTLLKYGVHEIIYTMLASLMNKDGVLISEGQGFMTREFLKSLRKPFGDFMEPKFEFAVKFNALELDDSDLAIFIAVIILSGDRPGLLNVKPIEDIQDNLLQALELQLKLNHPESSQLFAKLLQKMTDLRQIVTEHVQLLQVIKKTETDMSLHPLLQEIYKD
As to the kind of experiment: PPARγ/Gal4 transactivation system. It is filed as cell-based. The settings on record: PPAR/Gal4 transactivation system. The procedure: as §1, §2, §3, §4, §5, §6

For assay [2], the system named is hApoE2 Knock-in transgenic mice. The assay can be described thus: Effects on triglycerides and cholesterol metabolism in vivo. More on the design: species or system mouse. The procedure:
Treatment of animals: hApoE2 knock-in transgenic mice were kept on a 12-hour light/dark cycle at a constant temperature of 20±3° C. After a 1 week acclimation, mice were separated in groups of 6 animals selected such that the distribution of their body weight and plasmatic lipid levels determined before the experiment were uniform. The test compounds were suspended in carboxymethylcellulose and administered by intragastric gavage at the indicated doses, once a day for 7 or 8 days. Animals had access to food and water ad libitum. At the end of the experiment the animals were weighed and sacrificed under anesthesia. Blood was collected on EDTA. Plasma was prepared by centrifugation at 3000 rpm for 20 minutes. Organs were harvested, frozen in liquid nitrogen and stored at −80° C. for subsequent analysis.
Measurement of serum lipids: Serum lipid concentrations (total cholesterol and triglycerides) were determined by a colorimetric assay (Boehringer, Mannheim, Germany) according to the supplier's instructions.

The next assay has as its target T3, human PPARδ (Homo sapiens, UniProt Q03181).
T3 construct: expressed in transfected cells; host or cells: RK13 or COS-7
T3 sequence (Q03181 211-439 limits assumed): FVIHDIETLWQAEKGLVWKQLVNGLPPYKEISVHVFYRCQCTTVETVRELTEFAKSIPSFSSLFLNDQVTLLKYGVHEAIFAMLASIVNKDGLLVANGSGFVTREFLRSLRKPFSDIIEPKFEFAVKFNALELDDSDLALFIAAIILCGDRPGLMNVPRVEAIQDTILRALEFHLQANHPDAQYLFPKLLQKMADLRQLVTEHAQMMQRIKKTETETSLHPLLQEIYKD
As to the kind of experiment: PPARδ/Gal4 transactivation system. Type of assay: cell-based. The settings on record: PPAR/Gal4 transactivation system. The procedure: as §1, §2, §3, §4, §5
Transfection of COS7: Cells in suspension are transfected, in the presence of 10% (V/V) fetal calf serum, with 150 ng of DNA per well with a pGal4-PPAR/Gal4(RE)_TkpGL3 ratio of 1/10. […] At the end of the activation period, cells are lysed and luciferase activity is determined, using the Steady Glow Luciferase Kit (Promega), according to the supplier's instructions.

For a further assay, the system named is HaCat cells. As to the kind of experiment: Antioxidant properties on cell cultures (carboxy-H2DCFDA fluorescence, AAPH stress), keratinocytes. It is filed as cell-based, human. The settings on record: 25 μM for 24 h, AAPH 750 μM. The procedure:
(§7) The reduction in the intensity of the emitted fluorescence signal was determined in cells treated with the compounds in the following manner.
(§8) Prior to stress the cells with an oxidative agent such as AAPH (CAS number 2997-92-4), cells are incubated with compounds of interest at 25 μM for 24 h. Then the culture medium is discarded and cells are rinsed two times with PBS. Cells are then incubated 30 min at 37° C. with a cell-permeant indicator for reactive oxygen species that is nonfluorescent until the acetate groups are removed by intracellular esterases and oxidation occurs within the cell 5-(and-6)-carboxy-2′,7′-dichlorodihydrofluorescein diacetate (carboxy-H2DCFDA). The probes are prepared in PBS and incubated at the final concentration of 25 μM. After the incubation with the probe, cells are rinsed and incubated another 30 min with the oxidative solution containing AAPH at 750 μM in culture medium without phenol red and serum.
(§9) The fluorescence is then measured with a fluorimeter with the following wavelength, […].
(§10) Two different cell types have been tested with the inventive compounds. Human normal primary fibroblasts and HaCat cells which are a human keratinocyte cell line.

In assay [3] the test system is Human normal primary fibroblasts. The assay can be described thus: Antioxidant properties on cell cultures (carboxy-H2DCFDA fluorescence, AAPH stress), fibroblasts. It is filed as cell-based. The settings on record: 25 μM for 24 h, AAPH 750 μM. The procedure: as §7, §8, §9, §10
The subject of another assay is C57Black/6 mice. The assay can be described thus: Prophylactic neuroprotection, cerebral ischemia-reperfusion model (middle cerebral artery occlusion). It is filed as in vivo, mouse. The settings on record: gavage 200 mg/kg/day for 14 days before occlusion; 60 minutes occlusion, 24 hours reperfusion; untreated 37. The procedure:
C57 black/6 mice (wild-type) were used for this experiment. Animals were maintained on a 12 hour light-dark cycle at a temperature of 20° C.±3° C. Water and food were available ad libitum. Food intake and weight gain were recorded all along the experiment. The inventive compounds (200 mg/kg/day) or the vehicle (0.5% carboxycellulose (CMC)) were administered to the animals by gavage, for 14 days before ischemia induction in the middle cerebral artery.
Animals were anesthetized by intraperitoneal injection of 300 mg/kg chloral hydrate. A rectal probe was inserted and body temperature was maintained at 37° C.±0.5° C. Blood pressure was monitored throughout the experiment. Under a surgical microscope, the right carotid artery was exposed by a median incision in the neck. […]
Twenty-four hours after reperfusion, animals previously treated or not with the compounds were euthanized by pentobarbital overdose. […] Areas were measured and the volume of the infarct and the two hemispheres was calculated by the following formula: (corrected infarct volume=infarct volume−(volume of right hemisphere−volume of left hemisphere)) to compensate for cerebral oedema. […]

In a further assay the test system is C57 black/6 mice. As to the kind of experiment: Acute neuroprotection, cerebral ischemia-reperfusion model (middle cerebral artery occlusion). The conditions noted are these: 200 mg/kg/day for 72 hours after occlusion; untreated 41. It is filed as in vivo, mouse. The procedure: Animals such as those described previously were used for this experiment. Animals were anesthetized by intraperitoneal injection of 300 mg/kg chloral hydrate. A rectal probe was inserted and body temperature was maintained at 37° C.±0.5° C. Blood pressure was monitored throughout the experiment. Under a surgical microscope, the right carotid artery was exposed by a median incision in the neck. The pterygopalatine artery was ligated at its origin and an arteriotomy was fashioned in the external carotid artery so as to insert a nylon monofilament, which was gently advanced to the common carotid artery and then into the internal carotid artery so as to occlude the origin of the middle cerebral artery. The filament was withdrawn one hour later to allow reperfusion.
Animals first subjected to ischemia-reperfusion were treated with the inventive compounds by the oral or systemic route one or more times after reperfusion.
Seventy-two hours after reperfusion, animals previously treated or not with the compounds were euthanized by pentobarbital overdose. Brains were rapidly frozen and sliced. Sections were stained with cresyl violet. […] Areas were measured and the volume of the infarct and the two hemispheres was calculated by the following formula: (corrected infarct volume=infarct volume−(volume of right hemisphere−volume of left hemisphere)) to compensate for cerebral oedema. […]

The mark [4] stands for this setting: 1, 3, 10 and 30 mg/kg/day for 14 days.

Turning to `Cc1cc(/C=C/C(=O)c2ccc(OC(F)(F)F)cc2)cc(C)c1OC(C)(C)C(=O)O` [Compound 62], the plasma glucose level result in assay [1] was “decrease”. For the same compound, in assay [1], the plasma insulin level result is given as “decrease”. Further, the “concentration at which maximal activity is observed” value on human PPARα turned out to be 0.3 µM; at human PPARγ it was 10 µM; on human PPARδ, 3 µM. The plasma cholesterol result in assay [2] (50 mg/kg/day for 7 or 8 days, FIGS. 4-13, 4-15, 4-17, 4-19) was “decrease”; in assay [2] (setting [4]), “decrease”. In addition, the plasma triglycerides result in assay [2] (50 mg/kg/day for 7 or 8 days, FIGS. 4-14, 4-16, 4-18, 4-20) was “decrease”; in assay [2] (setting [4]), “decrease”. Further, the “antioxidant properties on cell cultures (in words)” value (in the assay on HaCat cells; in assay [3]) was “antioxidant properties” each time.

With `CC(C)OC(=O)C(C)(C)Oc1ccc(/C=C/C(=O)c2ccccc2O)cc1` [Compound 42], the infarct volume with C57Black/6 mice is given as 24 mm^3. Moreover, in the assay with C57 black/6 mice, the “total corrected infarct volume” value is 29 mm^3.

As for `Cc1cc(/C=C/C(=O)c2ccc(Cl)cc2)cc(C)c1OC(C)(C)C(=O)OC(C)C` [Compound 15, 1-[4-chlorophenyl]-3-[3,5-dimethyl-4-isopropyloxycarbonyldimethylmethyloxyphenyl]prop-2-en-1-one], the infarct volume in the assay on C57Black/6 mice came out at 32 mm^3. The “total corrected infarct volume” value with C57 black/6 mice is reported as 29 mm^3.
